For 24 molecules, IC50 results are on record in patent publication US12509444B2, “Compounds and methods for CD73 modulation and indications therefor” (Plexxikon Inc., priority 2019, dated 2025).

For assay [1], the target named is T1, Human CD73 (amino acid residues 27-549) (Homo sapiens, UniProt P21589).
T1 construct: Human CD73 (amino acid residues 27-549); His tag (N); made in house; host or cells: E. coli
T1 sequence (P21589 27-549): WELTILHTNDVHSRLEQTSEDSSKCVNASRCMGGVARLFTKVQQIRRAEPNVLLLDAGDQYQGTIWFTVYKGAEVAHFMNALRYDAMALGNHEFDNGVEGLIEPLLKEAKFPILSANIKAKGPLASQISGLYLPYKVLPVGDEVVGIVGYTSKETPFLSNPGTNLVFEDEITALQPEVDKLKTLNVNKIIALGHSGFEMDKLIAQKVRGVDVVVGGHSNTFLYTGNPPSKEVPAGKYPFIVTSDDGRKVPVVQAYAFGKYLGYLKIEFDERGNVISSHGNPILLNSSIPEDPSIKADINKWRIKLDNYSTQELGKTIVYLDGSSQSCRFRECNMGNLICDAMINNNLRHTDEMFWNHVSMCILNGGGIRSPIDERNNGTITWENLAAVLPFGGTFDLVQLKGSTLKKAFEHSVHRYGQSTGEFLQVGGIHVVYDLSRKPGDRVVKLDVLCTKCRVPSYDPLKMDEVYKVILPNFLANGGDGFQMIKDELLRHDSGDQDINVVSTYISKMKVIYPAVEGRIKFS
As to the kind of experiment: CD73 enzymatic assay (luciferase-based indirect assay, CellTiter-Glo). Conditions: 0.4 nM CD73, 150 μM AMP, 1 hour at room temperature. The format is biochemical. In a few lines: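 Residual AMP inhibits luciferase, so luminescence reports CD73 turnover; read with CellTiter-Glo 2.0 plus 1 μM final ATP, 30 min. Reaction used 0.4 nM N-His CD73 (27-549, E. coli), 150 μM AMP, HEPES pH 7.4 with Tween 20, 1 h at room temperature. IC50 fitted by nonlinear regression.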
(ATP-based viability assays read luminescence as a measure of living cells.)

A further assay concerns the target T2, human CD73 (Homo sapiens, UniProt P21589).
T2 construct: expressed in transfected cells
T2 sequence (P21589 27-549): T1 sequence (P21589 27-549)
As to the kind of experiment: Inhibitor activity against CD73 in cell based assay (CD73 expressing CHO-K1 cells). Particulars: CHO-K1 cells expressing human CD73, 150 μM AMP, 4 hours of incubation; read-out: CHO-K1 CELL VARIANT: CD73 IC50. The essentials:
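Residual supernatant AMP was quantified via CellTiter-Glo luminescence (1 μM ATP added, 30 min, room temperature) after a 4 h exposure of human CD73-expressing CHO-K1 cells to 150 μM AMP plus compound, top final 10 μM, 8 points. IC50 came from nonlinear regression of percent inhibition.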

pIC50: −log10 of the molar value.

As for `C[C@@H]1CCCC[C@H]1NC(=O)O[C@@H]1CCN(c2cn[nH]c(=O)c2Cl)C1` [P-0335, (R)-1-(5-chloro-6-oxo-1,6-dihydropyridazin-4-yl)pyrrolidin-3-yl ((1R,2R)-2-methylcyclohexyl)carbamate], the pIC50 (in assay [1]; on human CD73) was 5.00 to 9.00 each time.

As to `C[C@H]1C[C@@H](OC(=O)NC2CCC(F)(F)CC2)CN1c1cn[nH]c(=O)c1Cl` [P-0336, (3R,5S)-1-(5-chloro-6-oxo-1,6-dihydropyridazin-4-yl)-5-methylpyrrolidin-3-yl (4,4-difluorocyclohexyl)carbamate], the negative-log IC50 (pIC50) – broadly, −log10 of the IC50, conventionally taken in molar units – in assay [1] was 5.00 to 9.00; on human CD73, 4.00 to 5.00.

For `C[C@@H]1C[C@@H](OC(=O)NC2CCC(F)(F)CC2)CN1c1cn[nH]c(=O)c1Cl` [P-0337, (3R,5R)-1-(5-chloro-6-oxo-1,6-dihydropyridazin-4-yl)-5-methylpyrrolidin-3-yl (4,4-difluorocyclohexyl)carbamate], the negative-log IC50 (pIC50) was 5.00 to 9.00 in assay [1] and 4.00 to 5.00 on human CD73.

For `O=C(NC1CC(CO)(CCl)C1)O[C@@H]1CCN(c2cn[nH]c(=O)c2Cl)C1` (stereo partly drawn) [P-0338, (R)-1-(5-chloro-6-oxo-1,6-dihydropyridazin-4-yl)pyrrolidin-3-yl (3-(chloromethyl)-3-(hydroxymethyl)cyclobutyl) carbamate], the negative logarithm of the IC50 (pIC50) (in assay [1]; on human CD73) was 5.00 to 9.00 in each case.

`O=C(N[C@H]1CC[C@@H](F)CC1)O[C@@H]1CCN(c2cn[nH]c(=O)c2Cl)C1` [P-0339, (R)-1-(5-chloro-6-oxo-1,6-dihydropyridazin-4-yl)pyrrolidin-3-yl ((1s,4S)-4-fluorocyclohexyl)carbamate]: the pIC50 (in assay [1]; at human CD73) was 5.00 to 9.00 in each case.

On to `CC(=O)N1CC[C@H](NC(=O)O[C@@H]2CCN(c3cn[nH]c(=O)c3Cl)C2)C1` [P-0340, (R)-1-(5-chloro-6-oxo-1,6-dihydropyridazin-4-yl)pyrrolidin-3-yl ((S)-1-acetylpyrrolidin-3-yl)carbamate], for which the negative logarithm of the IC50 (pIC50) (in assay [1]; at human CD73) was 5.00 to 9.00 each time.

For `CS(=O)(=O)N1CC[C@H](NC(=O)O[C@@H]2CCN(c3cn[nH]c(=O)c3Cl)C2)C1` [P-0341, (R)-1-(5-chloro-6-oxo-1,6-dihydropyridazin-4-yl)pyrrolidin-3-yl ((S)-1-(methylsulfonyl)pyrrolidin-3-yl)carbamate], the pIC50 in assay [1] is 5.00 to 9.00; on human CD73, 4.00 to 5.00.

With `O=C(N[C@H]1CCN(C(=O)c2ccccc2)C1)O[C@@H]1CCN(c2cn[nH]c(=O)c2Cl)C1` [P-0342, (R)-1-(5-chloro-6-oxo-1,6-dihydropyridazin-4-yl)pyrrolidin-3-yl ((S)-1-benzoylpyrrolidin-3-yl)carbamate], the pIC50 in assay [1] is 5.00 to 9.00; on human CD73 it was 4.00 to 5.00.

For the molecule `O=C(N[C@H]1CCN(C(=O)NC2CCCCC2)C1)O[C@@H]1CCN(c2cn[nH]c(=O)c2Cl)C1` [P-0343, (R)-1-(5-chloro-6-oxo-1,6-dihydropyridazin-4-yl)pyrrolidin-3-yl ((S)-1-(cyclohexylcarbamoyl)pyrrolidin-3-yl)carbamate], the negative-log IC50 (pIC50) in assay [1] was 5.00 to 9.00; at human CD73, 4.00 to 5.00.

Turning to `Cc1ccc(C(=O)N[C@H]2CC[C@H](NC(=O)O[C@@H]3CCN(c4cn[nH]c(=O)c4Cl)C3)CC2)cc1` [P-0344, (R)-1-(5-chloro-6-oxo-1,6-dihydropyridazin-4-yl)pyrrolidin-3-yl ((1r,4R)-4-(4-methylbenzamido)cyclohexyl) carbamate], the pIC50 (in assay [1]; on human CD73) was 5.00 to 9.00 each time.

On to `O=C(Nc1ccc(C(F)(F)F)cc1)N[C@H]1CC[C@H](NC(=O)O[C@@H]2CCN(c3cn[nH]c(=O)c3Cl)C2)CC1` [P-0345, (R)-1-(5-chloro-6-oxo-1,6-dihydropyridazin-4-yl)pyrrolidin-3-yl ((1r,4R)-4-(3-(4-(trifluoromethyl)phenyl)ureido)cyclohexyl)carbamate], for which the pIC50 (in assay [1]; on human CD73) was 5.00 to 9.00 each time.

With `O=C(Nc1cccc(C(=O)O)c1)N[C@H]1CC[C@H](NC(=O)O[C@@H]2CCN(c3cn[nH]c(=O)c3Cl)C2)CC1` [P-0346, 3-(3-((1R,4r)-4-(((((R)-1-(5-chloro-6-oxo-1,6-dihydropyridazin-4-yl)pyrrolidin-3-yl)oxy)carbonyl)amino)cyclohexyl)ureido)benzoic acid], the negative-log IC50 (pIC50) (in assay [1]; on human CD73) was 5.00 to 9.00 in each case.

Take `O=C(Nc1ccc(C(=O)O)cc1)N[C@H]1CC[C@H](NC(=O)O[C@@H]2CCN(c3cn[nH]c(=O)c3Cl)C2)CC1` [P-0347, 4-(3-((1R,4r)-4-(((((R)-1-(5-chloro-6-oxo-1,6-dihydropyridazin-4-yl)pyrrolidin-3-yl)oxy)carbonyl)amino)cyclohexyl)ureido)benzoic acid]: the pIC50 (in assay [1]; at human CD73) was 5.00 to 9.00 each time.

With `COc1c(N2CC[C@@H](OC(=O)NC3CCC(F)(F)CC3)C2)cn[nH]c1=O` [P-0348, (R)-1-(5-methoxy-6-oxo-1,6-dihydropyridazin-4-yl)pyrrolidin-3-yl (4,4-difluorocyclohexyl)carbamate], the pIC50 in assay [1] was 5.00 to 9.00; on human CD73 it was 4.00 to 5.00.

Regarding `O=C(NC12CCC(CC1)C2)O[C@@H]1CCN(c2cn[nH]c(=O)c2Cl)C1` [P-0349, (R)-1-(5-chloro-6-oxo-1,6-dihydropyridazin-4-yl)pyrrolidin-3-yl bicyclo[2.2.1]heptan-1-ylcarbamate], the negative logarithm of the IC50 (pIC50) (in assay [1]; at human CD73) was 5.00 to 9.00 in each case.

As for `CC1(C)CCCC1NC(=O)O[C@@H]1CCN(c2cn[nH]c(=O)c2Cl)C1` (stereo partly drawn) [P-0350, (R)-1-(5-chloro-6-oxo-1,6-dihydropyridazin-4-yl)pyrrolidin-3-yl (2,2-dimethylcyclopentyl)carbamate], the negative-log IC50 (pIC50) (in assay [1]; on human CD73) was 5.00 to 9.00 each time.

Turning to `CC1(C)CC(NC(=O)O[C@@H]2CCN(c3cn[nH]c(=O)c3Cl)C2)C1` [P-0351, (R)-1-(5-chloro-6-oxo-1,6-dihydropyridazin-4-yl)pyrrolidin-3-yl (3,3-dimethylcyclobutyl)carbamate], the pIC50 (in assay [1]; on human CD73) was 5.00 to 9.00 each time.

On to `O=C(N[C@H]1CC[C@@H](Nc2ncccn2)CC1)O[C@@H]1CCN(c2cn[nH]c(=O)c2Cl)C1` [P-0352, (R)-1-(5-chloro-6-oxo-1,6-dihydropyridazin-4-yl)pyrrolidin-3-yl ((1s,4s)-4-(pyrimidin-2-ylamino)cyclohexyl)carbamate], for which the negative logarithm of the IC50 (pIC50) (in assay [1]; on human CD73) was 5.00 to 9.00 each time.

With `CC(=O)N1CC[C@@H](NC(=O)O[C@@H]2CCN(c3cn[nH]c(=O)c3Cl)C2)C1` [P-0353, (R)-1-(5-chloro-6-oxo-1,6-dihydropyridazin-4-yl)pyrrolidin-3-yl ((R)-1-acetylpyrrolidin-3-yl)carbamate], the negative logarithm of the IC50 (pIC50) (in assay [1]; on human CD73) was 5.00 to 9.00 in each case.

Regarding `O=C(N[C@@H]1CCN(C(=O)NC2CCCCC2)C1)O[C@@H]1CCN(c2cn[nH]c(=O)c2Cl)C1` [P-0354, (R)-1-(5-chloro-6-oxo-1,6-dihydropyridazin-4-yl)pyrrolidin-3-yl ((R)-1-(cyclohexylcarbamoyl)pyrrolidin-3-yl)carbamate], the pIC50 (in assay [1]; at human CD73) was 5.00 to 9.00 in each case.

As for `CS(=O)(=O)N1CC[C@@H](NC(=O)O[C@@H]2CCN(c3cn[nH]c(=O)c3Cl)C2)C1` [P-0355, (R)-1-(5-chloro-6-oxo-1,6-dihydropyridazin-4-yl)pyrrolidin-3-yl ((R)-1-(methylsulfonyl)pyrrolidin-3-yl)carbamate], the pIC50 (in assay [1]; at human CD73) was 5.00 to 9.00 in each case.

As for `CC(C)(O)[C@H]1CC[C@H](NC(=O)O[C@@H]2CCN(c3cn[nH]c(=O)c3Cl)C2)CC1` [P-0356, (R)-1-(5-chloro-6-oxo-1,6-dihydropyridazin-4-yl)pyrrolidin-3-yl ((1r,4R)-4-(2-hydroxypropan-2-yl)cyclohexyl)carbamate], the pIC50 (in assay [1]; on human CD73) was 5.00 to 9.00 each time.

In the case of `CC1(NC(=O)c2ccccc2)CCC(NC(=O)O[C@@H]2CCN(c3cn[nH]c(=O)c3Cl)C2)CC1` (stereo partly drawn) [P-0357, (R)-1-(5-chloro-6-oxo-1,6-dihydropyridazin-4-yl)pyrrolidin-3-yl (4-benzamido-4-methylcyclohexyl)carbamate], the negative-log IC50 (pIC50) (in assay [1]; on human CD73) was 5.00 to 9.00 throughout.

As to `CC1(NS(C)(=O)=O)CCC(NC(=O)O[C@@H]2CCN(c3cn[nH]c(=O)c3Cl)C2)CC1` (stereo partly drawn) [P-0358, (R)-1-(5-chloro-6-oxo-1,6-dihydropyridazin-4-yl)pyrrolidin-3-yl (4-methyl-4-(methylsulfonamido)cyclohexyl)carbamate], the negative-log IC50 (pIC50) (in assay [1]; at human CD73) was 5.00 to 9.00 in each case.
